The subject of test [1] is Human hair follicle dermal papillar cells. Briefly: Proliferation of human hair follicle dermal papilla cells (MTT). It counts as cell-based. The following applies: 0, 10 and 100 μM, 72 hours, FIG. 1. Here is the method: Human hair follicle dermal papillar cells (Application, Inc., USA) were seeded into a 6-well micro plate containing DMEM medium (Gibco, USA) with FBS at a density of 3×10^5 cells per well, and then were cultured in a 5% CO2 incubator at 37° C. for 24 hours. The next day, the cells were washed once with serum-free medium, and the medium was replaced with serum-free medium. Then, the cells were treated with 0, 10 and 100 μM of veratric acid, followed by incubating for 72 hours, after which the cells were washed once with serum-free medium, the medium was replaced with serum-free medium containing 10% MTT, and after 3 hours, the optical density (O.D.) value was measured and calculated as a percentage of control.

The subject of test [2] is insulin-like growth factor-1 (IGF-1). Briefly: IGF-1 secretion of hair follicle dermal papilla cells (ELISA). In kind it is cell-based, Human. As to conditions: 0, 10 and 100 μM, 48 hours; FIG. 2. Here is the method:
Human hair follicle dermal papillar cells (Application, Inc., USA) were seeded into a 24-well micro plate at density of 7.5×10^4 cells per well, and then were cultured in a 5% CO2 incubator at 37° C. for 24 hours. Then, the medium was replaced with serum-free medium, followed by being cultured for 16 hours. Then, each well was treated with 0, 10 and 100 μM of veratric acid, after which the cells were incubated for 48 hours. Then, the cell culture media were collected.
The secretion rate of growth factor insulin-like growth factor-1 (IGF-1) was determined by measuring the amount of secretion rate of IGF-1 using Insulin-like growth factor-1 quantikine ELISA kit (DG100, R&D system, USA).
A general note: ELISA stands for enzyme-linked immunosorbent assay.

Test [3] deals with transforming growth factor-beta1 (TGF-beta1). Briefly: Inhibition of TGF-beta1 production in hair follicle dermal papilla cells (ELISA). It counts as cell-based, Human. As to conditions: 0, 10 and 100 μM, 48 hours; FIG. 3. As to the method: Human hair follicle dermal papillar cells (Application, Inc., USA) were seeded into a 24-well micro plate at a density of 7.5×10^4 cells per well, and then were cultured in a 5% CO2 incubator at 37° C. for 24 hours. Then, the medium was replaced with serum-free medium, followed by being cultured for 16 hours. Then, each well was treated with 0, 10 and 100 μM of veratric acid, after which the cells were incubated for 48 hours. Then, the cell culture media were collected.
The secretion rate of transforming growth factor-beta1 (TGF-beta1) was determined by measuring the amount of secretion rate of TGF-beta1 using Human LAP TFG-beta1 ELISA kit (ab100647, abcam, USA).

For test [4], the system named is procollagen type I C-peptide (PICP). Briefly: Collagen synthesis in human normal fibroblasts (PICP EIA). As to conditions: 0, 1, 10 and 100 μM, 24 hours; FIG. 4. It counts as cell-based. Here is the method:
Human normal fibroblasts (Department of Dermatology, Ajou University) were seeded into a 24-well micro plate containing DMEM medium at a density of about 2×10^5 cells per well, and were cultured in a 5% CO2 incubator at 37° C. for 24 hours. Then, the medium was removed from each well of the plate, and each well was treated with 0, 1, 10 and 100 μM concentrations of veratric acid, after which the cells were cultured for 24 hours. Then, the cell medium was collected, thereby preparing samples.
The amounts of collagen synthesis in the above-prepared samples was determined by measuring the amount of procollagen type I C-peptide (PICP) using a Procollagen Type I C-peptide EIA kit (MK101; Takara, Kyoto, Japan).

Test [5] deals with Keratinocyte (HaCaT). Briefly: UV-preventing effect, cell viability after UVB (MTT), keratinocytes. In kind it is cell-based. As to conditions: pretreated 0, 1, 10 and 100 μM 24 hours, UVB 20 mJ/cm^2, 48 hours; FIG. 6. As to the method: (§1) Keratinocyte (HaCaT) and fibroblast were cultured in DMEM medium containing penicillin-streptomycin and serum. Then, the cells were seeded into a 12-well micro plate at density of about 1×10^5 cells per well, and were cultured in a 5% CO2 incubator at 37° C. until the cells attached about 80% over on well-area. Then, each well was pretreated with 0, 1, 10 and 100 μM of veratric acid, and after 24 hours, the medium was replaced with PBS, and then the cells were irradiated with UV (UVB 20 mJ/cm^2). Then, the UV-irradiated cells were replaced DMEM medium containing penicillin-streptomycin and serum, the cells were incubated for 48 hours. The cell viability was determined by measuring the viability of keratinocyte (HaCaT) and fibroblast using a MTT assay (30-1010K, ATCCTM).

Test [6] relates to fibroblast. Briefly: UV-preventing effect, cell viability after UVB (MTT), fibroblasts. It counts as cell-based. As to conditions: pretreated 0, 1, 10 and 100 μM 24 hours, UVB 20 mJ/cm^2, 48 hours; FIG. 5. As to the method: as §1
The test system of test [7] is collagenase (MMP-1). Briefly: Inhibition of collagenase production in human normal fibroblasts (MMP-1 ELISA). The following applies: 0, 1, 10 and 100 μM, 24 hours; FIG. 7. In kind it is cell-based. Here is the method: Human normal fibroblasts (Department of Dermatology, Ajou University) were seeded into a 24-well micro plate containing DMEM medium at a density of about 2×10^5 cells per well, and were then cultured in a 5% CO2 incubator at 37° C. for 24 hours. Then, the medium was removed from each well, and the cells were treated with 0, 1, 10 and 100 μM concentrations of veratric acid. Then, the cells were cultured for 24 hours, after which the cell culture media were collected, thereby preparing samples.
The inhibition effects of collagenase production was determined by measuring the amount of collagenase using MMP-1 ELISA kit (QIA55, Merck, Germany).

Test [8] concerns human skin. Briefly: Wrinkle-reducing effect of nourishing cream, skin elasticity. It counts as in vivo. As to conditions: face, twice a day, 3 months, scale 0 to 5. Here is the method: Specifically, an aqueous phase including purified water, triethanolamine, and propylene glycol was dissolved by heating to 70° C., and an oily phase including fatty acid, oily components, an emulsifier, and a preservative was dissolved by heating to 70° C. and added to the aqueous phase. Then, the resulting solution was cooled to 45° C., and veratric acid was added with in amounts of 0, 0.01, 0.05 and 1 wt % based on the total weight of the composition and was dispersed, followed by cooling to 30° C.
In the measurement of skin elasticity, nourishing creams described in Preparation Example 8-1 was applied to the face of 30 healthy women of 21 to 42 years old twice a day for 3 months. The control group was used nourishing cream containing purified water.
The effect on wrinkle reduction was evaluated by measuring a change in skin elasticity. The measurement of skin elasticity was performed with Coutometer SEM 474 (Courage+Khazaka, Cologne, Germany) under the conditions of constant temperature of 24˜26° C. and constant humidity of 38-40%. The evaluation criteria were as follows 0 indicating no improvement in skin elasticity, and 5 indicating improvement in skin elasticity.

For test [9], the system named is hairless mice (Skh: HR-1). Briefly: Wrinkle prevention by oral administration in UV-irradiated hairless mice (skin replicas). The following applies: 100 mg per kg oral, 5 weeks. It counts as in vivo. As to the method:
In order to measure the wrinkle-preventing effect of veratric acid, 6-7-week-old hairless mice (Skh: HR-1) were divided into a control group, a UV group and a UV/veratric acid group, each consisting of 8 animals, and were bred during the test period. The control group and the UV group were administered orally with 0.5 ml of saline, and the UV/veratric acid group was administered orally with a solution of 100 mg per kg veratric acid in 0.5 ml of saline.
The above-prepared samples were administered orally at the same point of time for 5 days a week for a total of 5 weeks. From 2 weeks to 5 weeks after oral administration, the UV group and the UV/veratric acid group were irradiated with UV light three times a week such that the total dose of UV radiation reached 600 mJ/cm^2.
To measure the wrinkle-preventing effect of veratric acid, skin replicas were taken from the back of the hairless mice using a silicon polymer before autopsy. In the same manner, after 5 weeks, skin replicas were taken from the groups treated with each of the samples. Using the taken skin replicas, the antiaging effect, i.e., wrinkle-reducing effect of each sample was measured.

The mark [10] stands for this setting: UV/veratric acid group, UV total 600 mJ/cm^2.

Each structure is given as a SMILES string.

This note sets out measurements from patent publication US9730872B2, “Method for improving skin conditions with veratric acid or acceptable salt thereof as an active ingredient” (Bio Spectrum, Inc., priority 2012, dated 2017).

Regarding `COc1ccc(C(=O)O)cc1OC` [Veratric acid, 3,4-dimethoxybenzoic acid], the “proliferation of human hair follicle dermal papilla cells (O.D. as percentage of control)” value in test [1] was “increased the proliferation of human hair follicle dermal papilla cells in a concentration-dependent manner”. Further, the IGF-1 secretion result in [2] is reported as “increased the IGF-1 secretion of human hair follicle dermal pailla cells in a concentration-dependent manner”. For the same compound, the TGF-beta1 production entry in test [3] is “excellently inhibited TGF-beta1 production”. The “collagen synthesis (PICP)” value in test [4] is reported as “increased collagen synthesis”. Moreover, the “cell death of UV-induced keratinocyte (cell viability)” value in test [5] was “prevented cell death”. In test [6], the “cell death of UV-induced fibroblasts (cell viability)” value is “prevented cell death”. Moreover, in test [7], the collagenase production result is “decreased collgenase production in human normal fibroblasts”. The Skin elasticity in test [8] (veratric acid 0.01 wt %) is 2.81. The same compound showed a Skin elasticity in test [8] (veratric acid 0.05 wt %) of 3.12. Moreover, the Skin elasticity in [8] (veratric acid 1 wt %) came to 3.36. In addition, the “R-parameter value compared to the UV/control groups” value in test [9] is listed as “reduced”. In test [9] (setting [10]), the “R1 value: Skin roughness” value worked out at 0.462 ± 0.013, the “R2 value: Maximum roughness” value was determined as 0.405 ± 0.011, the “R3 value: Average roughness” value is listed as 0.219 ± 0.012 and the “R4 value: Smoothness depth” value was 0.116 ± 0.010. In [9] (setting [10]), the “R5 value: Arithmetic average roughness” value was 0.290 ± 0.013.
